#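 48-hour exposure; five concentrations; linearly interpolated endpoints. TGI is the concentration that stops growth completely.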
# Assays:
# Assay in all cases: inhibition of tumour cell growth, NCI panel, 48 h
# MDA-MB-231 breast = system: MDA-MB-231 breast
# MDA-MB-435 = system: MDA-MB-435
# OVCAR-8 ovarian = system: OVCAR-8 ovarian
# KM12 colon = system: KM12 colon
# UACC-257 melanoma = system: UACC-257 melanoma
# SK-OV-3 ovarian = system: SK-OV-3 ovarian
# CCRF-CEM leukemia = system: CCRF-CEM leukemia
# IGROV1 ovarian = system: IGROV1 ovarian
# NCI-H226 lung = system: NCI-H226 lung
# HT29 colon = system: HT29 colon
# HL-60(TB) leukemia = system: HL-60(TB) leukemia
# M14 melanoma = system: M14 melanoma
# SK-MEL-5 melanoma = system: SK-MEL-5 melanoma
# ACHN renal = system: ACHN renal
# A549 NSCLC = system: A549 NSCLC
# SW-620 colon = system: SW-620 colon
# NCI-H23 lung = system: NCI-H23 lung
# SK-MEL-28 melanoma = system: SK-MEL-28 melanoma
# HCT-116 colon = system: HCT-116 colon
# EKVX NSCLC = system: EKVX NSCLC
# SF-268 CNS = system: SF-268 CNS
# HOP-62 NSCLC = system: HOP-62 NSCLC
# BT-549 breast = system: BT-549 breast
# MOLT-4 leukemia = system: MOLT-4 leukemia
# SNB-19 CNS = system: SNB-19 CNS
# NCI-H460 lung = system: NCI-H460 lung
# SF-539 CNS = system: SF-539 CNS
# UO-31 renal = system: UO-31 renal
# SN12C renal = system: SN12C renal
# HS 578T breast = system: HS 578T breast
# PC-3 prostate = system: PC-3 prostate
# T-47D breast = system: T-47D breast
# NCI/ADR-RES ovarian = system: NCI/ADR-RES ovarian
# RXF 393 renal = system: RXF 393 renal
# HCT-15 colon = system: HCT-15 colon
# TK-10 renal = system: TK-10 renal
# U251 CNS = system: U251 CNS
# K-562 leukemia = system: K-562 leukemia
# A498 renal = system: A498 renal
# OVCAR-3 ovarian = system: OVCAR-3 ovarian
# HCC-2998 colon = system: HCC-2998 colon
# MALME-3M melanoma = system: MALME-3M melanoma
# MCF7 breast = system: MCF7 breast
# SR leukemia = system: SR leukemia
# OVCAR-4 ovarian = system: OVCAR-4 ovarian
# CAKI-1 renal = system: CAKI-1 renal
# 786-0 renal = system: 786-0 renal
# RPMI-8226 leukemia = system: RPMI-8226 leukemia
# HOP-92 NSCLC = system: HOP-92 NSCLC
# OVCAR-5 ovarian = system: OVCAR-5 ovarian
# COLO 205 colon = system: COLO 205 colon
# SK-MEL-2 melanoma = system: SK-MEL-2 melanoma
# LOX IMVI melanoma = system: LOX IMVI melanoma
# SF-295 CNS = system: SF-295 CNS
# UACC-62 melanoma = system: UACC-62 melanoma
# MDA-N = system: MDA-N
# DU-145 prostate = system: DU-145 prostate
# NCI-H522 lung = system: NCI-H522 lung
smiles,measurement,setting,value
O=C1COc2ccc([N+](=O)[O-])cc2C(=O)C1,TGI,MDA-MB-231 breast,> 10 µM
same,TGI,MDA-MB-435,> 10 µM
same,TGI,OVCAR-8 ovarian,> 10 µM
same,TGI,KM12 colon,> 10 µM
same,TGI,UACC-257 melanoma,> 10 µM
same,TGI,SK-OV-3 ovarian,> 10 µM
same,TGI,CCRF-CEM leukemia,> 10 µM
same,TGI,IGROV1 ovarian,> 10 µM
same,TGI,NCI-H226 lung,> 10 µM
same,TGI,HT29 colon,> 10 µM
same,TGI,HL-60(TB) leukemia,> 10 µM
same,TGI,M14 melanoma,> 10 µM
same,TGI,SK-MEL-5 melanoma,> 10 µM
same,TGI,ACHN renal,> 10 µM
same,TGI,A549 NSCLC,> 10 µM
same,TGI,SW-620 colon,> 10 µM
same,TGI,NCI-H23 lung,> 10 µM
same,TGI,SK-MEL-28 melanoma,> 10 µM
same,TGI,HCT-116 colon,> 10 µM
same,TGI,EKVX NSCLC,> 10 µM
same,TGI,SF-268 CNS,> 10 µM
same,TGI,HOP-62 NSCLC,> 10 µM
same,TGI,BT-549 breast,> 10 µM
same,TGI,MOLT-4 leukemia,> 10 µM
same,TGI,SNB-19 CNS,> 10 µM
same,TGI,NCI-H460 lung,> 10 µM
same,TGI,SF-539 CNS,> 10 µM
same,TGI,UO-31 renal,> 10 µM
same,TGI,SN12C renal,> 10 µM
same,TGI,HS 578T breast,> 10 µM
same,TGI,PC-3 prostate,> 10 µM
same,TGI,T-47D breast,> 10 µM
same,TGI,NCI/ADR-RES ovarian,> 10 µM
same,TGI,RXF 393 renal,> 10 µM
same,TGI,HCT-15 colon,> 10 µM
same,TGI,TK-10 renal,> 10 µM
same,TGI,U251 CNS,> 10 µM
same,TGI,K-562 leukemia,> 10 µM
same,TGI,A498 renal,> 10 µM
same,TGI,OVCAR-3 ovarian,> 10 µM
same,TGI,HCC-2998 colon,> 10 µM
same,TGI,MALME-3M melanoma,> 10 µM
same,TGI,MCF7 breast,> 10 µM
same,TGI,SR leukemia,> 10 µM
same,TGI,OVCAR-4 ovarian,> 10 µM
same,TGI,CAKI-1 renal,> 10 µM
same,TGI,786-0 renal,> 10 µM
same,TGI,RPMI-8226 leukemia,> 10 µM
same,TGI,HOP-92 NSCLC,> 10 µM
same,TGI,OVCAR-5 ovarian,> 10 µM
same,TGI,COLO 205 colon,> 10 µM
same,TGI,SK-MEL-2 melanoma,> 10 µM
same,TGI,LOX IMVI melanoma,> 10 µM
same,TGI,SF-295 CNS,> 10 µM
same,TGI,UACC-62 melanoma,> 10 µM
same,TGI,MDA-N,> 10 µM
same,TGI,DU-145 prostate,> 10 µM
COC(=O)/C=C(/C(=O)OC)c1c(C)c(C)c2c(C)cc(C)cc(C)c1-2,TGI,MDA-MB-231 breast,> 100 µM
same,TGI,MDA-MB-435,> 100 µM
same,TGI,OVCAR-8 ovarian,> 100 µM
same,TGI,KM12 colon,> 100 µM
same,TGI,UACC-257 melanoma,> 100 µM
same,TGI,SK-OV-3 ovarian,76.8 µM
same,TGI,CCRF-CEM leukemia,> 100 µM
same,TGI,IGROV1 ovarian,> 100 µM
same,TGI,NCI-H226 lung,58.9 µM
same,TGI,HT29 colon,34.3 µM
same,TGI,HL-60(TB) leukemia,> 100 µM
same,TGI,M14 melanoma,37.3 µM
same,TGI,SK-MEL-5 melanoma,> 100 µM
same,TGI,ACHN renal,> 100 µM
same,TGI,A549 NSCLC,> 100 µM
same,TGI,SW-620 colon,> 100 µM
same,TGI,NCI-H23 lung,> 100 µM
same,TGI,SK-MEL-28 melanoma,> 100 µM
same,TGI,HCT-116 colon,> 100 µM
same,TGI,EKVX NSCLC,> 100 µM
same,TGI,SF-268 CNS,> 100 µM
same,TGI,HOP-62 NSCLC,81 µM
same,TGI,BT-549 breast,> 100 µM
same,TGI,MOLT-4 leukemia,> 100 µM
same,TGI,SNB-19 CNS,> 100 µM
same,TGI,NCI-H460 lung,> 100 µM
same,TGI,SF-539 CNS,> 100 µM
same,TGI,UO-31 renal,> 100 µM
same,TGI,SN12C renal,> 100 µM
same,TGI,HS 578T breast,62.2 µM
same,TGI,PC-3 prostate,> 100 µM
same,TGI,T-47D breast,> 100 µM
same,TGI,NCI/ADR-RES ovarian,> 100 µM
same,TGI,RXF 393 renal,> 100 µM
same,TGI,HCT-15 colon,> 100 µM
same,TGI,TK-10 renal,> 100 µM
same,TGI,U251 CNS,> 100 µM
same,TGI,K-562 leukemia,> 100 µM
same,TGI,A498 renal,> 100 µM
same,TGI,OVCAR-3 ovarian,> 100 µM
same,TGI,HCC-2998 colon,> 100 µM
same,TGI,MALME-3M melanoma,> 100 µM
same,TGI,MCF7 breast,> 100 µM
same,TGI,SR leukemia,> 100 µM
same,TGI,OVCAR-4 ovarian,> 100 µM
same,TGI,CAKI-1 renal,> 100 µM
same,TGI,786-0 renal,> 100 µM
same,TGI,NCI-H522 lung,52.3 µM
same,TGI,RPMI-8226 leukemia,> 100 µM
same,TGI,HOP-92 NSCLC,> 100 µM
same,TGI,OVCAR-5 ovarian,> 100 µM
same,TGI,COLO 205 colon,> 100 µM
same,TGI,SK-MEL-2 melanoma,> 100 µM
same,TGI,LOX IMVI melanoma,> 100 µM
same,TGI,SF-295 CNS,> 100 µM
same,TGI,UACC-62 melanoma,> 100 µM
same,TGI,MDA-N,4.83 µM
same,TGI,DU-145 prostate,> 100 µM

# From PubChem BioAssay (NCI)
